# Molecular target: Protein arginine N-methyltransferase 5 (Homo sapiens, UniProt O14744)
# Assay: iochemical Assay: Compounds of the invention may be tested for in vitro activity in the following assay: A histone H4 derived peptide is used as substrate (amino acid sequence: […]NH2). Full-length PRMT5 enzyme (NCBI Reference sequence NP-006100.2) was co-expressed with Hiss-MEP50 in insect cells and purified via Nickel immobilized metal affinity and gel filtration chromatograph.The 6 μL assay reactions are run in Greiner brand black 384-well low volume plates. All reactions contained assay buffer (phosphate buffered saline, 0.01% (v/v) Tween-20, 0.01% (w/v) albumin from chicken egg white, 1 mM dithiothreitol, 200 nM peptide substrate, 1 μM S-Adenosyl methionine, and 15 ng/reaction enzyme, with the enzyme being omitted from negative control reactions. Compounds were added in a volume of 100 nL from dilution series prepared in DMSO, positive and negative control reactions receiving the same volume DMSO without compound. The plates were sealed with adhesive seals and incubated for 4 hours at 37° C. Reaction progress was measured using the Transcreener™ EPIGEN methyltransferase assay (BellBrook Labs, Madison, Wis.) as recommended by the manufacturer. To each reaction 2 μL detection mix were added, containing coupling enzymes, fluorescence polarisation tracer, and AMP antibody. […]
# Chain of Protein arginine N-methyltransferase 5 (O14744 whole entry): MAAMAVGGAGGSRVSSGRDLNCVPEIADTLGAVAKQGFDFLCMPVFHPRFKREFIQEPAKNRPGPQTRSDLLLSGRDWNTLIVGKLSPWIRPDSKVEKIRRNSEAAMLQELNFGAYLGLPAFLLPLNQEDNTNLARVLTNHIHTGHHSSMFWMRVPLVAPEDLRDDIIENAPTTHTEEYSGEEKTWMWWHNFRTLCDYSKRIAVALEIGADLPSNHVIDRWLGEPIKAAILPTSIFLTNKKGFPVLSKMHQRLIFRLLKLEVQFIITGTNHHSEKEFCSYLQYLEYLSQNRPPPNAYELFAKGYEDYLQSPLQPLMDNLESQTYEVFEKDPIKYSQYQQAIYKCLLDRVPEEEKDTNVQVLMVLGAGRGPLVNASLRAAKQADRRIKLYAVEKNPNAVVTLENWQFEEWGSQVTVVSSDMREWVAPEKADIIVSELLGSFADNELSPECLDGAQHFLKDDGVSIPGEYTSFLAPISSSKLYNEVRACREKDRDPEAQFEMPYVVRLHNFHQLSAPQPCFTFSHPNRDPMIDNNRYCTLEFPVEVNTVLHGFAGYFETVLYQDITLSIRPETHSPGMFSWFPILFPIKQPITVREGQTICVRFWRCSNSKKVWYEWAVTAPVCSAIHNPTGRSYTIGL
row,IC50,SMILES
1,31.4 µM,CNC(=O)c1cccc(C(=O)NC[C@@H](O)CNC2Cc3ccccc3C2)c1
2,2.45 µM,COc1ccc(-c2cc(C(=O)NC[C@H](O)CNC3Cc4ccccc4C3)on2)cc1

# Reference: ChEMBL document CHEMBL5727145, “Aminoindane-, aminotetrahydronaphthalene- and aminobenzocyclobutane-derived PRMT5-inhibitors” (2018)
